Data: EP4806435A1, “DIHYDROCHROMENE-DERIVATIVE-CONTAINING THERAPEUTIC AGENT FOR CANCER” (Sumitomo Pharma Co., Ltd., priority 2023, dated 2025)

Test system: patients with recurrent malignant glioma classified as WHO grade III or IV
Test: Phase 1 dose-escalation clinical trial: safety (TEAEs, DLTs, MTD);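 note: dosing continued until unacceptable toxicity, consent withdrawal, loss to follow-up or investigator/sponsor decision, with cohorts of 1-6 patients per dose level and MTD estimated by BLRM from cumulative DLT data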
[1] = 20 mg (N=2), cutoff April 21, 2023
[2] = 20 mg QD (N=2), cutoff April 21, 2024
[3] = 40 mg (N=4), cutoff April 21, 2023
[4] = 40 mg QD (N=4), cutoff April 21, 2024
[5] = 80 mg (N=3), cutoff April 21, 2023
[6] = 80 mg QD (N=3), cutoff April 21, 2024
[7] = 120 mg (N=6), cutoff April 21, 2023
[8] = 120 mg QD (N=6), cutoff April 21, 2024
[9] = 180 mg (N=3), cutoff April 21, 2023
[10] = 180 mg QD (N=6), cutoff April 21, 2024

Procedure: Administration to each subject was continued until unacceptable toxicity occurred, consent was withdrawn, the subject was lost to follow-up, or discontinuation was determined by the investigator and/or the sponsor.
The present study consists of two parts: a dose-escalation part (Part 1) and a dose-expansion part (Part 2).
Each dose level was evaluated in cohorts of 1-6 patients. In all cohorts, administration of the investigational drug to the second and subsequent patients was permitted after completion of all safety assessments on Day 8 of Cycle 1 in the first patient. […] At dose level 2 in the dose-escalation part, at least three patients were required to be evaluated before escalation to a higher dose level. After completion of each cohort, the probability of observing a DLT at each dose level in the present study was updated using the BLRM based on cumulative data from the preceding cohorts, and the MTD was estimated.

Structure (SMILES): CC1(C)Oc2cc(Cl)ccc2[C@@H]2OCC3(CCN(CCn4ccnc4)CC3)C[C@H]21 [Compound 1, (4'aR,10'bR)-8'-chloro-1-[2-(1H-imidazol-1-yl)ethyl]-5',5'-dimethyl-4'a,10'b-dihydro-2'H,4'H,5'H-spiro[piperidine-4,3'-pyrano[3,2-c][1]benzopyran] diphosphate]
- Number of patients with any TEAE [1]: 2 (100) n (%)
- TEAE: constipation [1]: 0 n (%)
- TEAE: decreased appetite [1]: 0 n (%)
- TEAE: decreased lymphocyte count [1]: 0 n (%)
- TEAE: decreased neutrophil count [1]: 0 n (%)
- TEAE: decreased platelet count [1]: 0 n (%)
- TEAE: decreased white blood cell count [1]: 0 n (%)
- TEAE: dry skin [1]: 1 (50.0) n (%)
- TEAE: fall [1]: 0 n (%)
- TEAE: headache [1]: 0 n (%)
- TEAE: hypertrigly-ceridaemia [1]: 0 n (%)
- TEAE: hyponatremia [1]: 0 n (%)
- TEAE: increased alanine aminotransferase [1]: 1 (50.0) n (%)
- TEAE: increased aspartate aminotransferase [1]: 1 (50.0) n (%)
- TEAE: nausea [1]: 1 (50.0) n (%)
- TEAE: seizure [1]: 1 (50.0) n (%)
- TEAE: vomiting [1]: 0 n (%)
- Number of Patients with Any TEAE [2]: 2 (100) n (%)
- TEAE: Confusional state [2]: 0 n (%)
- TEAE: Gait disturbance [2]: 0 n (%)
- TEAE: Gastrointestinal disorder [2]: 0 n (%)
- TEAE: Hiccups [2]: 0 n (%)
- TEAE: Tremor [2]: 0 n (%)
- TEAE: alopecia [2]: 0 n (%)
- TEAE: constipation [2]: 0 n (%)
- TEAE: decreased appetite [2]: 0 n (%)
- TEAE: decreased lymphocyte count [2]: 0 n (%)
- TEAE: decreased neutrophil count [2]: 0 n (%)
- TEAE: decreased platelet count [2]: 0 n (%)
- TEAE: diarrhea [2]: 0 n (%)
- TEAE: dry skin [2]: 1 (50.0) n (%)
- TEAE: fall [2]: 0 n (%)
- TEAE: fatigue [2]: 0 n (%)
- TEAE: headache [2]: 0 n (%)
- TEAE: hypertrigly-ceridaemia [2]: 0 n (%)
- TEAE: hyponatremia [2]: 0 n (%)
- TEAE: increase in blood cholesterol [2]: 0 n (%)
- TEAE: increased alanine aminotransferase [2]: 1 (50.0) n (%)
- TEAE: increased aspartate aminotransferase [2]: 1 (50.0) n (%)
- TEAE: maculopapular rash [2]: 0 n (%)
- TEAE: nausea [2]: 1 (50.0) n (%)
- TEAE: seizure [2]: 1 (50.0) n (%)
- TEAE: vomiting [2]: 0 n (%)
- dose-limiting toxicities (20 mg to 240 mg, cutoff April 21, 2023): No dose-limiting toxicities were observed at any dose level
- serious TEAE: seizure (20 mg, 120 mg, and 180 mg groups, cutoff April 21, 2023): three
- Number of patients with any TEAE [3]: 4 (100) n (%)
- TEAE: constipation [3]: 1 (25.0) n (%)
- TEAE: decreased appetite [3]: 1 (25.0) n (%)
- TEAE: decreased lymphocyte count [3]: 2 (50.0) n (%)
- TEAE: decreased neutrophil count [3]: 2 (50.0) n (%)
- TEAE: decreased platelet count [3]: 2 (50.0) n (%)
- TEAE: decreased white blood cell count [3]: 2 (50.0) n (%)
- TEAE: dry skin [3]: 0 n (%)
- TEAE: fall [3]: 1 (25.0) n (%)
- TEAE: headache [3]: 1 (25.0) n (%)
- TEAE: hypertrigly-ceridaemia [3]: 1 (25.0) n (%)
- TEAE: hyponatremia [3]: 1 (25.0) n (%)
- TEAE: increased alanine aminotransferase [3]: 1 (25.0) n (%)
- TEAE: increased aspartate aminotransferase [3]: 2 (50.0) n (%)
- TEAE: nausea [3]: 2 (50.0) n (%)
- TEAE: seizure [3]: 1 (25.0) n (%)
- TEAE: vomiting [3]: 1 (25.0) n (%)
- Number of Patients with Any TEAE [4]: 4 (100) n (%)
- TEAE: Confusional state [4]: 0 n (%)
- TEAE: Gait disturbance [4]: 0 n (%)
- TEAE: Gastrointestinal disorder [4]: 0 n (%)
- TEAE: Hiccups [4]: 2 (50.0) n (%)
- TEAE: Tremor [4]: 0 n (%)
- TEAE: alopecia [4]: 1 (25.0) n (%)
- TEAE: constipation [4]: 1 (25.0) n (%)
- TEAE: decreased appetite [4]: 1 (25.0) n (%)
- TEAE: decreased lymphocyte count [4]: 2 (50.0) n (%)
- TEAE: decreased neutrophil count [4]: 2 (50.0) n (%)
- TEAE: decreased platelet count [4]: 2 (50.0) n (%)
- TEAE: diarrhea [4]: 0 n (%)
- TEAE: dry skin [4]: 0 n (%)
- TEAE: fall [4]: 1 (25.0) n (%)
- TEAE: fatigue [4]: 1 (25.0) n (%)
- TEAE: headache [4]: 1 (25.0) n (%)
- TEAE: hypertrigly-ceridaemia [4]: 1 (25.0) n (%)
- TEAE: hyponatremia [4]: 1 (25.0) n (%)
- TEAE: increase in blood cholesterol [4]: 0 n (%)
- TEAE: increased alanine aminotransferase [4]: 1 (25.0) n (%)
- TEAE: increased aspartate aminotransferase [4]: 2 (50.0) n (%)
- TEAE: maculopapular rash [4]: 0 n (%)
- TEAE: nausea [4]: 2 (50.0) n (%)
- TEAE: seizure [4]: 1 (25.0) n (%)
- TEAE: vomiting [4]: 1 (25.0) n (%)
- serious TEAE: disease progression (40 mg QD group, cutoff April 21, 2024): one
- serious TEAE: disease progression (40 mg group, cutoff April 21, 2023): one
- Number of patients with any TEAE [5]: 3 (100) n (%)
- TEAE: constipation [5]: 0 n (%)
- TEAE: decreased appetite [5]: 0 n (%)
- TEAE: decreased lymphocyte count [5]: 0 n (%)
- TEAE: decreased neutrophil count [5]: 2 (66.7) n (%)
- TEAE: decreased platelet count [5]: 1 (33.3) n (%)
- TEAE: decreased white blood cell count [5]: 1 (33.3) n (%)
- TEAE: dry skin [5]: 0 n (%)
- TEAE: fall [5]: 0 n (%)
- TEAE: headache [5]: 1 (33.3) n (%)
- TEAE: hypertrigly-ceridaemia [5]: 0 n (%)
- TEAE: hyponatremia [5]: 1 (33.3) n (%)
- TEAE: increased alanine aminotransferase [5]: 2 (66.7) n (%)
- TEAE: increased aspartate aminotransferase [5]: 0 n (%)
- TEAE: nausea [5]: 2 (66.7) n (%)
- TEAE: seizure [5]: 0 n (%)
- TEAE: vomiting [5]: 0 n (%)
- Number of Patients with Any TEAE [6]: 3 (100) n (%)
- TEAE: Confusional state [6]: 0 n (%)
- TEAE: Gait disturbance [6]: 0 n (%)
- TEAE: Gastrointestinal disorder [6]: 0 n (%)
- TEAE: Hiccups [6]: 0 n (%)
- TEAE: Tremor [6]: 0 n (%)
- TEAE: alopecia [6]: 0 n (%)
- TEAE: constipation [6]: 0 n (%)
- TEAE: decreased appetite [6]: 0 n (%)
- TEAE: decreased lymphocyte count [6]: 0 n (%)
- TEAE: decreased neutrophil count [6]: 2 (66.7) n (%)
- TEAE: decreased platelet count [6]: 1 (33.3) n (%)
- TEAE: diarrhea [6]: 0 n (%)
- TEAE: dry skin [6]: 0 n (%)
- TEAE: fall [6]: 0 n (%)
- TEAE: fatigue [6]: 0 n (%)
- TEAE: headache [6]: 1 (33.3) n (%)
- TEAE: hypertrigly-ceridaemia [6]: 0 n (%)
- TEAE: hyponatremia [6]: 1 (33.3) n (%)
- TEAE: increase in blood cholesterol [6]: 0 n (%)
- TEAE: increased alanine aminotransferase [6]: 2 (66.7) n (%)
- TEAE: increased aspartate aminotransferase [6]: 0 n (%)
- TEAE: maculopapular rash [6]: 0 n (%)
- TEAE: nausea [6]: 2 (66.7) n (%)
- TEAE: seizure [6]: 0 n (%)
- TEAE: vomiting [6]: 0 n (%)
- Number of patients with any TEAE [7]: 6 (100) n (%)
- TEAE: constipation [7]: 2 (33.3) n (%)
- TEAE: decreased appetite [7]: 0 n (%)
- TEAE: decreased lymphocyte count [7]: 0 n (%)
- TEAE: decreased neutrophil count [7]: 1 (16.7) n (%)
- TEAE: decreased platelet count [7]: 0 n (%)
- TEAE: decreased white blood cell count [7]: 0 n (%)
- TEAE: dry skin [7]: 1 (16.7) n (%)
- TEAE: fall [7]: 1 (16.7) n (%)
- TEAE: headache [7]: 2 (33.3) n (%)
- TEAE: hypertrigly-ceridaemia [7]: 1 (16.7) n (%)
- TEAE: hyponatremia [7]: 1 (16.7) n (%)
- TEAE: increased alanine aminotransferase [7]: 2 (33.3) n (%)
- TEAE: increased aspartate aminotransferase [7]: 1 (16.7) n (%)
- TEAE: nausea [7]: 2 (33.3) n (%)
- TEAE: seizure [7]: 1 (16.7) n (%)
- TEAE: vomiting [7]: 2 (33.3) n (%)
- Number of Patients with Any TEAE [8]: 6 (100) n (%)
- TEAE: Confusional state [8]: 0 n (%)
- TEAE: Gait disturbance [8]: 0 n (%)
- TEAE: Gastrointestinal disorder [8]: 0 n (%)
- TEAE: Hiccups [8]: 0 n (%)
- TEAE: Tremor [8]: 0 n (%)
- TEAE: alopecia [8]: 0 n (%)
- TEAE: constipation [8]: 2 (33.3) n (%)
- TEAE: decreased appetite [8]: 0 n (%)
- TEAE: decreased lymphocyte count [8]: 0 n (%)
- TEAE: decreased neutrophil count [8]: 1 (16.7) n (%)
- TEAE: decreased platelet count [8]: 0 n (%)
- TEAE: diarrhea [8]: 1 (16.7) n (%)
- TEAE: dry skin [8]: 1 (16.7) n (%)
- TEAE: fall [8]: 1 (16.7) n (%)
- TEAE: fatigue [8]: 0 n (%)
- TEAE: headache [8]: 2 (33.3) n (%)
- TEAE: hypertrigly-ceridaemia [8]: 1 (16.7) n (%)
- TEAE: hyponatremia [8]: 1 (16.7) n (%)
- TEAE: increase in blood cholesterol [8]: 0 n (%)
- TEAE: increased alanine aminotransferase [8]: 2 (33.3) n (%)
- TEAE: increased aspartate aminotransferase [8]: 1 (16.7) n (%)
- TEAE: maculopapular rash [8]: 0 n (%)
- TEAE: nausea [8]: 2 (33.3) n (%)
- TEAE: seizure [8]: 1 (16.7) n (%)
- TEAE: vomiting [8]: 2 (33.3) n (%)
- serious TEAE: aphasia (120 mg QD group, cutoff April 21, 2024): one
- serious TEAE: aphasia (120 mg group, cutoff April 21, 2023): one
- Number of patients with any TEAE [9]: 3 (100) n (%)
- TEAE: constipation [9]: 1 (33.3) n (%)
- TEAE: decreased appetite [9]: 1 (33.3) n (%)
- TEAE: decreased lymphocyte count [9]: 1 (33.3) n (%)
- TEAE: decreased neutrophil count [9]: 1 (33.3) n (%)
- TEAE: decreased platelet count [9]: 1 (33.3) n (%)
- TEAE: decreased white blood cell count [9]: 0 n (%)
- TEAE: dry skin [9]: 0 n (%)
- TEAE: fall [9]: 1 (33.3) n (%)
- TEAE: headache [9]: 0 n (%)
- TEAE: hypertrigly-ceridaemia [9]: 1 (33.3) n (%)
- TEAE: hyponatremia [9]: 0 n (%)
- TEAE: increased alanine aminotransferase [9]: 2 (66.7) n (%)
- TEAE: increased aspartate aminotransferase [9]: 0 n (%)
- TEAE: nausea [9]: 1 (33.3) n (%)
- TEAE: seizure [9]: 1 (33.3) n (%)
- TEAE: vomiting [9]: 1 (33.3) n (%)
- Number of Patients with Any TEAE [10]: 6 (100) n (%)
- TEAE: Confusional state [10]: 1 (16.7) n (%)
- TEAE: Gait disturbance [10]: 1 (16.7) n (%)
- TEAE: Gastrointestinal disorder [10]: 2 (33.3) n (%)
- TEAE: Hiccups [10]: 0 n (%)
- TEAE: Tremor [10]: 2 (33.3) n (%)
